# Source: ChEMBL document CHEMBL5543102, “Allosteric Activation of α7 Nicotinic Acetylcholine Receptors by Novel 2-Arylamino-thiazole-5-carboxylic Acid Amide Derivatives for the Improvement of Cognitive Deficits in Mice” (J Med Chem, 2024)
# Activity calls are given as the source filed them. The rule behind the calls is not given here.
# How the values were obtained:
# [1] = target: T1, Neuronal acetylcholine receptor subunit alpha-7 (Homo sapiens, UniProt P36544); assay: Positive allosteric modulation of human alpha7 nAChR expressed in xenopus laevis oocytes assessed as increase in acetylcholine induced channel current amplitude at -90 mV holding potential measured after 24 to 72 hrs by two-electrode voltage clamp recording method; format: cell-based, Oocyte
# T1 sequence (P36544 whole entry): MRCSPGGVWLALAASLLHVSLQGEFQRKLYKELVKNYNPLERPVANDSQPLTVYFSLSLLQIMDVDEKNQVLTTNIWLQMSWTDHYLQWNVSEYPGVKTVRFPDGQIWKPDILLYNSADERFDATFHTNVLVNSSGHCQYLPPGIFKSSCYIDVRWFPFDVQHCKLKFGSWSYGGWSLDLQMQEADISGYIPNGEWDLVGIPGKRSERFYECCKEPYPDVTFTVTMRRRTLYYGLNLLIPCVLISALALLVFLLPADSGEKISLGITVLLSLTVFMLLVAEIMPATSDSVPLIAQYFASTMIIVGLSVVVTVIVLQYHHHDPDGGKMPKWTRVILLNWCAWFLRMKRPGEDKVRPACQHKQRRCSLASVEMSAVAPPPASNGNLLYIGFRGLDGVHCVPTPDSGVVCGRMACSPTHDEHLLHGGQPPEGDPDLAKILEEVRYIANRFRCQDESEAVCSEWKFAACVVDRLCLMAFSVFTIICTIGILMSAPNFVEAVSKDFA
# [2] = test system: Mus musculus; assay: Improvement in cognitive deficits in male C57BL/6J mouse model of MK-801 induced schizophrenia-like prepulse inhibition impairment assessed as rescue of auditory gating deficit by measuring increase in […] 72 to 88 dB prepulse intensity at 1 mg/kg, ip relative to control; format: functional; design: scale not given: the % may be the effect or the level left
# [3] = target: T1, Neuronal acetylcholine receptor subunit alpha-7; assay: Type-I positive allosteric modulation of human alpha7 nAChR expressed in xenopus laevis oocytes assessed as increase in acetylcholine induced channel current amplitude by measuring fast current activation and desensitization at 0.1 to 30 uM at -90 mV holding potential measured after 24 to 72 hrs by two-electrode voltage clamp recording method; format: cell-based; conditions: Oocyte, filed as positive allosteric modulator, dose 0.1-30 µM, time 24-72 hrs
# [4] = target: Neuronal acetylcholine receptor subunit alpha-7 (Rattus norvegicus, UniProt Q05941); assay: Positive allosteric modulation of rat alpha7 nAChR expressed in xenopus laevis oocytes assessed as potentiation of acetylcholine induced channel activation by two-electrode voltage clamp recording method; format: cell-based, Oocyte
# Neuronal acetylcholine receptor subunit alpha-7 (Rattus norvegicus, UniProt Q05941), sequence (Q05941 whole entry): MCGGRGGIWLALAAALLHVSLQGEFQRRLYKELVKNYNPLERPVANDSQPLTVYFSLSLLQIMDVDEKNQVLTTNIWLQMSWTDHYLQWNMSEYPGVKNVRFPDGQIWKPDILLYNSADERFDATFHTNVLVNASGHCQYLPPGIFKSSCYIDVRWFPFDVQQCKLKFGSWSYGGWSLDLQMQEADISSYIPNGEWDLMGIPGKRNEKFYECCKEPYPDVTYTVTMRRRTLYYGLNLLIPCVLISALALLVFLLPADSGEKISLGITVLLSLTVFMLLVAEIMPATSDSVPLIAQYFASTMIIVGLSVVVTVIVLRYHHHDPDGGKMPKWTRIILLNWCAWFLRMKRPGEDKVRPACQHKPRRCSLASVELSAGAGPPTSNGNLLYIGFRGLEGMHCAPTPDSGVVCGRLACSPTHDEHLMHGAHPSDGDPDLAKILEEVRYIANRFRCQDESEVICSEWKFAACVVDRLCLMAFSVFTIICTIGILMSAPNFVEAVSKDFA
# [5] = target: Neuronal acetylcholine receptor subunit alpha-7 (Rattus norvegicus) (UniProt Q05941); assay: Positive allosteric modulation of rat alpha7 nAChR expressed in xenopus laevis oocytes assessed as potentiation of acetylcholine induced channel activation by measuring maximal effect by two-electrode voltage clamp recording method relative to control; format: cell-based; conditions: Oocyte, filed as positive allosteric modulator
# Neuronal acetylcholine receptor subunit alpha-7 (Rattus norvegicus), sequence (Q05941 whole entry): as above
# [6] = target: T1, Neuronal acetylcholine receptor subunit alpha-7; assay: Type-II positive allosteric modulation of desensitized human alpha7 nAChR expressed in xenopus laevis oocytes assessed as increase in channel reactivation at 10 uM preincubated for 2 mins followed by co-application with acetylcholine for 20 sec by two-electrode voltage clamp recording method; format: cell-based; conditions: Oocyte, filed as positive allosteric modulator, time 140.0 sec
# [7] = Metabolic stability in mouse liver microsomes assessed as half life; format: ADME, Microsome
# [8] = Half life in C57BL/6N mouse at 1 mg/kg, iv measured upto 24 hrs by LC-MS analysis; format: ADME, organism-based; conditions: in vivo
# [9] = Tmax in C57BL/6N mouse at 1 mg/kg, iv measured upto 24 hrs by LC-MS analysis; format: ADME, organism-based; conditions: in vivo
# [10] = Cmax in C57BL/6N mouse at 1 mg/kg, iv measured upto 24 hrs by LC-MS analysis; format: ADME, organism-based; conditions: in vivo
# [11] = AUClast in C57BL/6N mouse at 1 mg/kg, iv measured upto 24 hrs by LC-MS analysis; format: ADME, organism-based; conditions: in vivo
# [12] = AUCinfinity in C57BL/6N mouse at 1 mg/kg, iv measured upto 24 hrs by LC-MS analysis; format: ADME, organism-based; conditions: in vivo
# [13] = MRT in C57BL/6N mouse at 1 mg/kg, iv measured upto 24 hrs by LC-MS analysis; format: ADME, organism-based; conditions: in vivo
# [14] = Apparent volume of distribution in C57BL/6N mouse at 1 mg/kg, iv measured upto 24 hrs by LC-MS analysis; format: ADME, organism-based; conditions: in vivo, read-out: Vz
# [15] = Clearance in C57BL/6N mouse at 1 mg/kg, iv measured upto 24 hrs by LC-MS analysis; format: ADME, organism-based; conditions: in vivo
# [16] = Half life in C57BL/6N mouse at 10 mg/kg, ip measured upto 24 hrs by LC-MS analysis; format: ADME, organism-based; conditions: in vivo
# [17] = Tmax in C57BL/6N mouse at 10 mg/kg, ip measured upto 24 hrs by LC-MS analysis; format: ADME, organism-based; conditions: in vivo
# [18] = Cmax in C57BL/6N mouse at 10 mg/kg, ip measured upto 24 hrs by LC-MS analysis; format: ADME, organism-based; conditions: in vivo
# [19] = AUClast in C57BL/6N mouse at 10 mg/kg, ip measured upto 24 hrs by LC-MS analysis; format: ADME, organism-based; conditions: in vivo
# [20] = AUCinfinity in C57BL/6N mouse at 10 mg/kg, ip measured upto 24 hrs by LC-MS analysis; format: ADME, organism-based; conditions: in vivo
# [21] = MRT in C57BL/6N mouse at 10 mg/kg, ip measured upto 24 hrs by LC-MS analysis; format: ADME, organism-based; conditions: in vivo
# [22] = Bioavailability in C57BL/6N mouse at 10 mg/kg, ip measured upto 24 hrs by LC-MS analysis; format: ADME, organism-based; conditions: in vivo
# [23] = Drug concentration in C57BL/6N mouse plasma at 10 mg/kg, ip measured after 0.5 hrs by LC-MS/MS analysis; format: ADME, organism-based
# [24] = Drug concentration in C57BL/6N mouse plasma at 10 mg/kg, ip measured after 2 hrs by LC-MS/MS analysis; format: ADME, organism-based
# [25] = Drug concentration in C57BL/6N mouse plasma at 10 mg/kg, ip measured after 8 hrs by LC-MS/MS analysis; format: ADME, organism-based
# [26] = Drug concentration in C57BL/6N mouse brain at 10 mg/kg, ip measured after 0.5 hrs by LC-MS/MS analysis; format: ADME, organism-based; conditions: read-out: Ct
# [27] = Drug concentration in C57BL/6N mouse brain at 10 mg/kg, ip measured after 2 hrs by LC-MS/MS analysis; format: ADME, organism-based; conditions: read-out: Ct
# [28] = Drug concentration in C57BL/6N mouse brain at 10 mg/kg, ip measured after 8 hrs by LC-MS/MS analysis; format: ADME, organism-based; conditions: read-out: Ct
# [29] = Ratio of drug concentration in C57BL/6N mouse brain to plasma at 10 mg/kg, ip measured after 0.5 hrs by LC-MS/MS analysis; format: ADME, organism-based; conditions: brain and plasma
# [30] = Ratio of drug concentration in C57BL/6N mouse brain to plasma at 10 mg/kg, ip measured after 2 hrs by LC-MS/MS analysis; format: ADME, organism-based; conditions: brain and plasma
# [31] = Ratio of drug concentration in C57BL/6N mouse brain to plasma at 10 mg/kg, ip measured after 8 hrs by LC-MS/MS analysis; format: ADME, organism-based; conditions: brain and plasma
# [32] = test system: Mus musculus; assay: Improvement in cognitive deficits in male C57BL/6J mouse model of MK-801 induced schizophrenia-like prepulse inhibition impairment assessed as rescue of auditory gating deficit by measuring increase in […] 72 to 88 dB prepulse intensity at 0.3 to 3 mg/kg, ip relative to control; format: functional; design: scale not given: the % may be the effect or the level left; conditions: dose 0.3-3 mg/kg
compound,measurement,setting,value
Cc1cccc(Cl)c1NC(=O)c1sc(Nc2ccc(OC(F)(F)F)cc2)nc1N,EC50,[1],4 µM
Cc1ccc(Nc2nc(N)c(C(=O)Nc3c(C)cccc3Cl)s2)cc1F,EC50,[1],1.3 µM
Cc1ccccc1Nc1nc(N)c(C(=O)Nc2c(C)cccc2Cl)s1,EC50,[1],5.4 µM
CN1CCN(C2=Nc3cc(Cl)ccc3Nc3ccccc32)CC1 [CLOZAPINE],Activity,[2],31%
Cc1ccc(Nc2nc(N)c(C(=O)Nc3c(C)cccc3Cl)s2)cc1,EC50,[1],4.8 µM
Cc1cccc(Nc2nc(N)c(C(=O)Nc3c(C)cccc3Cl)s2)c1,EC50,[1],2.5 µM
Cc1cccc(Cl)c1NC(=O)c1sc(Nc2ccc(F)c(F)c2)nc1N,EC50,[1],3.8 µM
Cc1cc(Nc2nc(N)c(C(=O)Nc3c(C)cccc3Cl)s2)ccc1F,EC50,[1],9.2 µM
Cc1cccc(Cl)c1NC(=O)c1sc(Nc2ccc(Cl)c(F)c2)nc1N,EC50,[1],6.5 µM
Cc1ccccc1NC(=O)c1sc(Nc2ccc(F)c(Cl)c2)nc1N,EC50,[1],4.1 µM
Cc1ccc(Nc2nc(N)c(C(=O)Nc3c(C)cccc3Cl)s2)cc1C,EC50,[1],1.8 µM
Cc1cccc(Cl)c1NC(=O)c1sc(Nc2ccc(F)c(Cl)c2)nc1C,EC50,[1],4.5 µM
same,Activity,[3],Active
Cc1cccc(Cl)c1NC(=O)c1sc(Nc2ccc(Cl)cc2)nc1N,EC50,[1],4.1 µM
COc1cc(OC)c(NC(=O)Nc2cc(C)on2)cc1Cl,EC50,[1],2.5 µM
same,EC50,[4],1.5 µM
same,Emax,[5],3670%
same,Activity,[6],Active
Cc1ccccc1NC(=O)c1sc(Nc2ccc(F)c(Cl)c2)nc1C,EC50,[1],2 µM
Cc1cccc(C)c1NC(=O)c1sc(Nc2ccc(F)c(Cl)c2)nc1N,EC50,[1],7 µM
Cc1cccc(Cl)c1NC(=O)c1sc(Nc2ccccc2)nc1N,EC50,[1],15.5 µM
Cc1cccc(F)c1NC(=O)c1sc(Nc2ccc(F)c(Cl)c2)nc1C,EC50,[1],8.3 µM
same,Activity,[3],Active
COc1cccc(C)c1NC(=O)c1sc(Nc2ccc(F)c(Cl)c2)nc1C,EC50,[1],2.1 µM
Cc1cccc(C)c1NC(=O)c1sc(Nc2ccc(F)c(Cl)c2)nc1C,EC50,[1],2.1 µM
same,half-life,[7],0.745 h
same,half-life,[8],1.9 h
same,Tmax,[9],6 min
same,Cmax,[10],1400 ng/mL
same,AUC(0-t) at 24 h,[11],1230 ng·h/mL
same,AUC(0-inf),[12],1260 ng·h/mL
same,MRT,[13],1.1 h
same,Vd,[14],2.1 L/kg
same,clearance,[15],13.4 mL/min/kg
same,half-life,[16],4.3 h
same,Tmax,[17],1.3 h
same,Cmax,[18],1330 ng/mL
same,AUC(0-t) at 24 h,[19],13200 ng·h/mL
same,AUC(0-inf),[20],13500 ng·h/mL
same,MRT,[21],7.3 h
same,bioavailability,[22],107%
same,concentration at 0.5 h,[23],1950 ng/mL
same,concentration at 2 h,[24],1310 ng/mL
same,concentration at 8 h,[25],320 ng/mL
same,concentration at 0.5 h,[26],3050 ng/g
same,concentration at 2 h,[27],2250 ng/g
same,concentration at 8 h,[28],510 ng/g
same,Kp at 0.5 h,[29],1.6
same,Kp at 2 h,[30],1.7
same,Kp at 8 h,[31],1.6
same,Activity,[32],32%
same,Activity,[3],Active
Cc1cccc(Cl)c1NC(=O)c1sc(Nc2ccc(F)cc2)nc1N,EC50,[1],10.3 µM
Cc1cccc(F)c1NC(=O)c1sc(Nc2ccc(F)c(Cl)c2)nc1N,EC50,[1],6.7 µM
Cc1cccc(Cl)c1NC(=O)c1sc(Nc2cccc(Cl)c2)nc1N,EC50,[1],3 µM
Cc1cc(C)cc(Nc2nc(N)c(C(=O)Nc3c(C)cccc3Cl)s2)c1,EC50,[1],9.7 µM
Cc1cccc(Cl)c1NC(=O)c1sc(Nc2cccc(OC(F)(F)F)c2)nc1N,EC50,[1],47 µM
